The values below come from patent US10238631B2, “Sesquiterpene derivatives and their use in inflammation or cancer treatment” (Academia Sinica, priority 2014, dated 2019).

For test [1], the system named is Melanocyte (Normal cells). Put plainly: MTT cell viability assay, normal melanocytes. The class given is cell-based, human. To be noted: Homo sapiens, Melanocyte, 24 h. An outline of the steps: (§1)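 Cells (2×10^3 to 1×10^4/well) seeded overnight, then exposed to compounds for 24 h to 72 h. Growth read by MTT colorimetry at OD570. Viability expressed as % of vehicle (0.5% DMSO) control.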

Test [2] has as its system MeWo (No NRAS or BRAF mutation). Put plainly: MTT cell viability assay, MeWo melanoma. The class given is cell-based, human. To be noted: Homo sapiens, MeWo, 24 h. An outline of the steps:
as §1
In general terms: Tetrazolium dyes change colour on reduction, which living cells bring about.

The next test relates to A375 (BRAF mutation). Put plainly: MTT cell viability assay, A375 melanoma. The class given is cell-based, human. To be noted: Homo sapiens, A-375, 24 h, 24 h, MTT; read-out: IC50 on cell viability, A375 (BRAF mutation). An outline of the steps:
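A375 cells were seeded at 2×10^3 to 1×10^4 per well overnight and then exposed to compounds for 24 h to 72 h. Viability was measured by MTT absorbance at OD570 relative to 0.5% DMSO vehicle (100%), and IC50 was derived from it. Combination with PLX4032 was scored by combination index.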

Test [3] deals with LPS-induced nitric oxide (NO) production in RAW 264.7 cells. Put plainly: Nitric oxide production in LPS-stimulated macrophages (Griess). The class given is cell-based, mouse. To be noted: Mus musculus; LPS-stimulated RAW264.7, nitrite 24 h after LPS. An outline of the steps: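 RAW 264.7 macrophages (2×10^5 cells/well) were pretreated with compound for 1 h and then stimulated with 100 ng/μL LPS for 24 h. NO was measured as nitrite in the medium by the Griess reaction. Viability was checked in parallel by MTT.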

The next test deals with HTB-68 (NRAS mutation). Put plainly: MTT cell viability assay, HTB-68 melanoma. The class given is cell-based, human. The conditions noted are these: Homo sapiens, 24 h. The method, boiled down:
as §1

In test [4] the test system is TS/A (ER+, Her2−) murine mammary cancer cells. Put plainly: MTT cell viability assay, TS/A cells. The class given is cell-based. The conditions noted are these: Mus musculus, 24 h, read-out: IC50 on cell viability, TS/A (ER+, Her2−). The method, boiled down:
(§2)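 Cells were seeded at 2×10^3 to 1×10^4 per well overnight, then exposed to compounds for 24 h to 72 h. Viability was read by MTT at OD570 as a percentage of the 0.5% DMSO vehicle control.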

In test [5] the test system is RAW264.7 (normal macrophage). Put plainly: MTT cell viability assay, RAW264.7 macrophages. The class given is cell-based, mouse. To be noted: Mus musculus, RAW264.7, 24 h. An outline of the steps:
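RAW264.7 macrophages (2×10^5 cells/well) pretreated with compounds 1 h, then incubated 24 h with or without 100 ng/μL LPS. Viability by MTT colorimetric assay run in parallel with Griess nitrite measurement.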

In test [6] the test system is MDA-MB-231 (ER−, PR−, Her2−) human breast cancer cells. Put plainly: MTT cell viability assay, MDA-MB-231 cells. The class given is cell-based. The conditions noted are these: Homo sapiens, MDA-MB-231, 24 h, read-out: IC50 on cell viability, MDA-MB-231 (ER−, PR−, Her2−). An outline of the steps:
as §2

The subject of test [7] is M10 normal mammary epithelial cells. Put plainly: MTT cell viability assay, M10 normal cells. Type of test: cell-based, human. To be noted: Homo sapiens, Epithelial cell, 24 h. The method, boiled down: as §2
Test [8] deals with MCF-7 (ER+, Her2−) human breast cancer cells. Put plainly: MTT cell viability assay, MCF-7 cells. Type of test: cell-based. To be noted: MCF7, 24 h, read-out: IC50 on cell viability, MCF-7 (ER+, Her2−). The method, boiled down: as §2
Another test concerns B16-F10 (NRAS mutation). Put plainly: MTT cell viability assay, B16-F10 melanoma. Type of test: cell-based. To be noted: Mus musculus, B16-F10, 24 h, 24 h, read-out: IC50 on cell viability, B16-F10 (NRAS mutation). An outline of the steps: as §1
For another test, the system named is A2058 (BRAF mutation). Put plainly: MTT cell viability assay, A2058 melanoma. The conditions noted are these: Homo sapiens, A2058, 24 h. Type of test: cell-based, human. The method, boiled down: as §1
The test system of test [9] is melanoma cell lines B16-F10, MeWo, A375, A2058, HTB-68. Put plainly: MTT cell viability assay, all melanoma cell lines. Type of test: cell-based. To be noted: 24 h, read-out: IC50 values over all types of melanoma cell lines. As for the experimental part: Normal or cancer cells (2×10^3 to 1×10^4 cells/well) were seeded in 96-well plate for overnight and treated with different compounds for 24 h to 72 h. Cells growth were determined by MTT-based colorimetric assays according to. Viability of the test cells treated with vehicle (0.5% DMSO) only was defined as 100% viable. Survival of cells after treatment with DETDs was calculated using the following formula: viable cell number (%)=OD570 (treated cell culture)/OD570 (vehicle control)×100.
Several genes are involved in melanoma development and pathology; specifically, mutation in V-raf murine sarcoma viral oncogene homolog B1 (B-RAF) occurs approximately 50-60% and in neuroblastoma RAS viral oncogene homolog (N-RAS) occurs about 30% of malignant melanomas. A spectrum of wild-type or mutated melanoma cell lines including B16-F10, MeWo, A375, A2058, HTB-68, and melanocyte were used to study anti-melanoma cell proliferation activity of parental phytocompound DET and newly synthesized DETDs.

Regarding `C=C1C(=O)OC2CC3=C[C@@H](C/C(C)=C/C(OC(=O)Cc4cccc5cc(OC)ccc45)[C@H]12)OC3=O` (some centres unmarked) [DETD-45], the IC50 was greater than 10 µM in test [1]; 4.5 µM in test [2]; 1.7 µM with A375 (BRAF mutation); 2.8 µM in test [3]; 3.5 µM in the test with HTB-68 (NRAS mutation); 2 µM in test [4]. Moreover, the IC50 in test [5] was greater than 10 µM; in [6], 3.1 µM; in test [7], 4.7 µM; in test [8], 3.1 µM; with B16-F10 (NRAS mutation) it was 4.5 µM; in the test with A2058 (BRAF mutation), 3.6 µM. In test [9], the IC50 lay in the range of 1.6 to 9.9 µM.

On to `C=C1C(=O)OC2CC3=C[C@@H](C/C(C)=C/C(OC(=O)[C@@H](C)c4ccc5cc(OC)ccc5c4)[C@H]12)OC3=O` (some centres unmarked) [DETD-53], for which the IC50 is greater than 10 µM in test [1]; 6 µM in test [2]; 2.8 µM with A375 (BRAF mutation); 3.5 µM in [3]; 5 µM in the test on HTB-68 (NRAS mutation); 4.1 µM in [4]. Besides, the IC50 in test [5] was greater than 10 µM; in [6], 3.8 µM; in test [7], 4.8 µM; in [8], 4.1 µM; in the test on B16-F10 (NRAS mutation), 5.2 µM; in the test on A2058 (BRAF mutation), 5.5 µM. In addition, the IC50 in test [9] was 1.6 to 9.9 µM.

As for `C=C1C(=O)OC2CC3=C[C@@H](C/C(C)=C/C(OC(=O)[C@H](C)c4ccc5cc(OC)ccc5c4)[C@H]12)OC3=O` (some centres unmarked) [DETD-54], the IC50 in test [1] was greater than 10 µM; in [2] it was 7.9 µM; in the test on A375 (BRAF mutation), 3.4 µM; in test [3] it was greater than 10 µM; in the test with HTB-68 (NRAS mutation), 7 µM; in test [4], 3.1 µM. Also, the IC50 is greater than 10 µM in test [5]; 4.9 µM in test [6]; greater than 7.5 µM in [7]; greater than 7.5 µM in [8]; 6.6 µM with B16-F10 (NRAS mutation); 6.6 µM with A2058 (BRAF mutation). For the same molecule, the IC50 in [9] is 1.6 to 9.9 µM.

As for `C=C1C(=O)OC2CC3=C[C@@H](C/C(C)=C/[C@@H](OC(=O)C(C)(OC)c4ccc5ccccc5c4)[C@H]12)OC3=O` (some centres unmarked) [DETD-55], the IC50 in [1] was greater than 10 µM; in test [2], 9 µM; in the test with A375 (BRAF mutation) it was 2.6 µM; in test [3], 2.9 µM; in the test with HTB-68 (NRAS mutation) it was 5.3 µM; in test [4], 2.8 µM. Further, the IC50 is greater than 10 µM in [5]; 4.1 µM in test [6]; greater than 7.5 µM in test [7]; greater than 7.5 µM in [8]; 4.8 µM in the test with B16-F10 (NRAS mutation); 6.1 µM in the test on A2058 (BRAF mutation). In test [9], the IC50 fell in the range of 1.6 to 9.9 µM.

As to `C=C1C(=O)OC2CC3=C[C@@H](C/C(C)=C/[C@@H](OC(=O)[C@@H](OC)c4ccc5ccccc5c4)[C@H]12)OC3=O` (some centres unmarked) [DETD-56], the IC50 in [1] was greater than 10 µM; in [2] it was 7.6 µM; in the test with A375 (BRAF mutation), 2.5 µM; in [3], 3 µM; in the test with HTB-68 (NRAS mutation), 4.5 µM; in test [4] it was 1.9 µM. Further, the IC50 was greater than 10 µM in test [5]; 4.2 µM in test [6]; greater than 7.5 µM in test [7]; 4.5 µM in test [8]; 5.3 µM in the test on B16-F10 (NRAS mutation); 5.2 µM with A2058 (BRAF mutation). For the same molecule, in [9], the IC50 was in the range of 1.6 to 9.9 µM.

Consider `C=C1C(=O)OC2CC3=C[C@@H](C/C(C)=C/[C@@H](OC(=O)Cc4csc5ccccc45)[C@H]12)OC3=O` (some centres unmarked) [DETD-58], for which the IC50 in test [1] was greater than 10 µM; in test [2], 8.3 µM; in the test on A375 (BRAF mutation), 2.1 µM; in test [3], 3.6 µM; in the test on HTB-68 (NRAS mutation), 3.8 µM; in test [4] it was 2.1 µM. For the same molecule, the IC50 is greater than 10 µM in test [5]; 3.8 µM in test [6]; 5.8 µM in test [7]; 3.8 µM in test [8]; 5.6 µM in the test on B16-F10 (NRAS mutation); 5 µM with A2058 (BRAF mutation). The IC50 in [9] was 1.6 to 9.9 µM.

For the molecule `C=C1C(=O)OC2CC3=C[C@@H](C/C(C)=C/[C@@H](OC(=O)/C=C/c4ccc(OCC)cc4)[C@H]12)OC3=O` (some centres unmarked) [DETD-60], the IC50 in [1] is greater than 10 µM; in test [2] it was 4.8 µM; in the test with A375 (BRAF mutation) it was 2 µM; in [3], 3 µM; with HTB-68 (NRAS mutation), 4.9 µM; in test [4], 2.1 µM. The IC50 in test [5] is greater than 10 µM; in test [6], 2.7 µM; in test [7] it was 4 µM; in test [8] it was 3.3 µM; in the test on B16-F10 (NRAS mutation), 4.9 µM; in the test with A2058 (BRAF mutation), 4.1 µM. For the same molecule, the IC50 in test [9] is 1.6 to 9.9 µM.

In the case of `C=C1C(=O)OC2CC3=C[C@@H](C/C(C)=C/[C@@H](OC(=O)/C=C/c4ccc5c(c4)OCO5)[C@H]12)OC3=O` (some centres unmarked) [DETD-61], the IC50 in [1] is greater than 10 µM; in test [2], 6.6 µM; in the test on A375 (BRAF mutation), 2.6 µM; in test [3], 3.1 µM; with HTB-68 (NRAS mutation) it was 5.5 µM; in [4], 2.5 µM. The IC50 in test [5] was greater than 10 µM; in test [6], 3.4 µM; in test [7], 4.7 µM; in [8], 3.6 µM; with B16-F10 (NRAS mutation) it was 6 µM; in the test on A2058 (BRAF mutation) it was 5.2 µM. The IC50 in [9] lay in the range of 1.6 to 9.9 µM.
